Assay results as given in ChEMBL document CHEMBL1201862, “PubChem BioAssay data set” (2004).
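Values below derive from 48-hour exposures of cells grown in 96-well plates, with endpoints linearly interpolated between the two concentrations bracketing the appropriate inhibition level. GI50 is the concentration that inhibits growth by half.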 The source made the active and inactive calls. Cut-off read from the data, not from the text of the source: active = GI50 up to about 1.1 µM and inactive = higher.

Experiments:
Assay in all cases: NCI anticancer screen, dose series, 48 h
[1] = system: OVCAR-3
[2] = system: Malme-3M
[3] = system: SF-268
[4] = system: ACHN
[5] = system: MDA-MB-435
[6] = system: UACC-257
[7] = system: SK-MEL-28
[8] = system: MOLT-4
[9] = system: COLO 205
[10] = system: SK-MEL-2
[11] = system: U-251
[12] = system: MDA-MB-231
[13] = system: UO-31
[14] = system: RXF 393
[15] = system: NCI-H226
[16] = system: SK-OV-3
[17] = system: MCF7
[18] = system: HL-60
[19] = system: 786-0

SMILES	GI50 [1]	GI50 [2]	GI50 [3]	GI50 [4]	GI50 [5]	GI50 [6]	GI50 [7]	GI50 [8]	GI50 [9]	GI50 [10]	GI50 [11]	GI50 [12]	GI50 [13]	GI50 [14]	GI50 [15]	GI50 [16]	GI50 [17]	GI50 [18]	GI50 [19]
CC(C)OP(=O)(OC(C)C)c1c(N)n[nH]c1Nc1ccccc1	> 100 µM (inactive)	> 100 µM (inactive)	> 100 µM (inactive)	> 100 µM (inactive)	> 100 µM (inactive)	> 100 µM (inactive)	> 100 µM (inactive)	> 100 µM (inactive)	> 100 µM (inactive)	> 100 µM (inactive)	> 100 µM (inactive)	> 100 µM (inactive)	> 100 µM (inactive)	> 100 µM (inactive)	> 100 µM (inactive)	> 100 µM (inactive)	> 100 µM (inactive)		
CC(=O)OC1CC2C(C)(C)C(=O)C=C[C@]2(C)C2CCC3(C)C(=CC(=O)C3c3ccoc3)[C@]12C (stereo partly drawn)	11.5 µM (inactive)	17.5 µM (inactive)	15.6 µM (inactive)	16.2 µM (inactive)		17.4 µM (inactive)	15.9 µM (inactive)	13.2 µM (inactive)	16.9 µM (inactive)	17.9 µM (inactive)			18.9 µM (inactive)	2.3 µM (inactive)	17.8 µM (inactive)	20.7 µM (inactive)		14.3 µM (inactive)	15.5 µM (inactive)
O=P(NCCCO)(OCc1ccccc1)N(CCCl)CCCl (stereo not drawn)	> 100 µM (inactive)	> 100 µM (inactive)	> 100 µM (inactive)			> 100 µM (inactive)	> 100 µM (inactive)	> 100 µM (inactive)	> 100 µM (inactive)	> 100 µM (inactive)	> 100 µM (inactive)		> 100 µM (inactive)	> 100 µM (inactive)	> 100 µM (inactive)	> 100 µM (inactive)	> 100 µM (inactive)	> 100 µM (inactive)	
COC(=O)C(=Cc1cc(OC)c(OC)c(OC)c1-c1cc2c(cc1C(C)=O)OCO2)C(=O)OC	26.5 µM (inactive)	38.7 µM (inactive)	57.1 µM (inactive)	46.8 µM (inactive)		52 µM (inactive)	33.1 µM (inactive)	52.2 µM (inactive)	35.3 µM (inactive)	32.4 µM (inactive)	37.2 µM (inactive)			33.7 µM (inactive)	50.9 µM (inactive)	71.9 µM (inactive)		34.2 µM (inactive)	33.1 µM (inactive)
CC(=O)Oc1cc2c(cc1OC(C)=O)OCC(c1ccc(C)cc1)C2 (stereo not drawn)	21.6 µM (inactive)	19 µM (inactive)	10.5 µM (inactive)			21.4 µM (inactive)	20 µM (inactive)	7.19 µM (inactive)	20.5 µM (inactive)	20 µM (inactive)	9.91 µM (inactive)		20.6 µM (inactive)	17.5 µM (inactive)	27.1 µM (inactive)	53.7 µM (inactive)	24.9 µM (inactive)	2.61 µM (inactive)	
c1cc2c3c(c1)c1cc4c(cc1c[n+]3CC2)OCO4 [ANHYDROLYCORINIUM CHLORIDE]	3.4 µM (inactive)	0.871 µM (active)	0.618 µM (active)			5.28 µM (inactive)	4.82 µM (inactive)	1.25 µM (inactive)	2.74 µM (inactive)	4.26 µM (inactive)	0.811 µM (active)		> 127 µM (inactive)	6.12 µM (inactive)	1.25 µM (inactive)	10.2 µM (inactive)	6.25 µM (inactive)	6.3 µM (inactive)	
N=C(N)SCc1cccc([N+](=O)[O-])c1	18.6 µM (inactive)	34.2 µM (inactive)	33 µM (inactive)			27.2 µM (inactive)	31.8 µM (inactive)	32.7 µM (inactive)	21.5 µM (inactive)	24 µM (inactive)	44.7 µM (inactive)		36.8 µM (inactive)	24.8 µM (inactive)	24.3 µM (inactive)	> 57.1 µM (inactive)	28.4 µM (inactive)	18.8 µM (inactive)	
C[C@]12CCC(O)CC1=CC[C@@H]1[C@@H]2CC[C@]2(C)C(O)[C@H](n3ccnc3)C[C@@H]12 (stereo partly drawn)	72.4 µM (inactive)	> 100 µM (inactive)	> 100 µM (inactive)	62.2 µM (inactive)	75 µM (inactive)	28.2 µM (inactive)	> 100 µM (inactive)	17.4 µM (inactive)	47.4 µM (inactive)	52.1 µM (inactive)	52 µM (inactive)	> 100 µM (inactive)	> 100 µM (inactive)	55.1 µM (inactive)	> 100 µM (inactive)		51.4 µM (inactive)	11.1 µM (inactive)	> 100 µM (inactive)
Cc1ccccc1NC(=O)c1c(C)oc2c1C(=O)c1ccccc1C2=O	14.4 µM (inactive)	10.2 µM (inactive)	31.8 µM (inactive)	36.9 µM (inactive)		21.4 µM (inactive)	27.5 µM (inactive)	20.1 µM (inactive)	53.3 µM (inactive)	30.5 µM (inactive)	7.89 µM (inactive)		> 85.3 µM (inactive)	> 100 µM (inactive)	> 38.7 µM (inactive)	> 100 µM (inactive)		19.8 µM (inactive)	27 µM (inactive)
O=C(C(O)c1cn(Cc2ccccc2)c2ccccc12)N1CCCCC1 (stereo not drawn)	50 µM (inactive)	> 100 µM (inactive)	83.2 µM (inactive)	53.5 µM (inactive)		48.9 µM (inactive)	> 10 µM (inactive)	39.9 µM (inactive)	> 100 µM (inactive)	> 100 µM (inactive)	> 10 µM (inactive)		> 100 µM (inactive)	> 10 µM (inactive)	34.4 µM (inactive)	72.8 µM (inactive)		> 100 µM (inactive)	> 100 µM (inactive)
COc1ccc(/C=C/C(=O)c2ccc(Br)cc2)cc1		> 100 µM (inactive)	> 100 µM (inactive)	> 100 µM (inactive)	> 100 µM (inactive)	> 10 µM (inactive)	> 100 µM (inactive)	59.3 µM (inactive)	> 100 µM (inactive)	> 100 µM (inactive)	> 100 µM (inactive)	> 100 µM (inactive)	78.7 µM (inactive)		> 100 µM (inactive)	> 100 µM (inactive)	85.7 µM (inactive)	66.8 µM (inactive)	> 100 µM (inactive)
CC(=O)OC1COC(N2C(=O)/C(=N\NC(N)=S)c3cc(Br)ccc32)C(OC(C)=O)C1OC(C)=O (stereo not drawn)	51.5 µM (inactive)	32.7 µM (inactive)	38.5 µM (inactive)	60.3 µM (inactive)		> 100 µM (inactive)	25.4 µM (inactive)	39.3 µM (inactive)	38.1 µM (inactive)	> 100 µM (inactive)	53.5 µM (inactive)			63.5 µM (inactive)	> 100 µM (inactive)	> 100 µM (inactive)		25.6 µM (inactive)	> 100 µM (inactive)
O=C1C=C(Nc2ccc(S(=O)(=O)Nc3ncccn3)cc2)c2ccccc2C1=O	14.6 µM (inactive)	23.9 µM (inactive)	28.5 µM (inactive)	27 µM (inactive)		20.1 µM (inactive)	26 µM (inactive)	48.5 µM (inactive)	22.5 µM (inactive)	18.4 µM (inactive)	17.6 µM (inactive)		24 µM (inactive)	23.3 µM (inactive)	28.4 µM (inactive)	26.7 µM (inactive)		25.4 µM (inactive)	19.8 µM (inactive)
CN1CCC23c4ccccc4NC1C21CCN(C)C3Nc2ccccc21	> 375 µM (inactive)	249 µM (inactive)	102 µM (inactive)			93.3 µM (inactive)	> 375 µM (inactive)	151 µM (inactive)	> 338 µM (inactive)	> 375 µM (inactive)	> 375 µM (inactive)		> 301 µM (inactive)	152 µM (inactive)	206 µM (inactive)	> 375 µM (inactive)	> 375 µM (inactive)	59.7 µM (inactive)	
NC(=O)N/N=C/C(/C=N/NC(N)=O)[N+](=O)[O-]	> 100 µM (inactive)	> 100 µM (inactive)	> 100 µM (inactive)	> 100 µM (inactive)		> 100 µM (inactive)	> 100 µM (inactive)		> 100 µM (inactive)	> 100 µM (inactive)				> 100 µM (inactive)	> 100 µM (inactive)	> 100 µM (inactive)		> 100 µM (inactive)	> 100 µM (inactive)
CCCCCCCCCCCCCCCCCCOCC(O)CO (stereo not drawn) [BATILOL]	> 23.9 µM (inactive)	> 11.1 µM (inactive)	> 25 µM (inactive)			> 23.9 µM (inactive)	> 25 µM (inactive)	17.2 µM (inactive)	> 25 µM (inactive)	> 24.2 µM (inactive)	> 25 µM (inactive)		12.5 µM (inactive)	16.7 µM (inactive)	> 21.6 µM (inactive)	> 23.5 µM (inactive)	> 25 µM (inactive)	10.5 µM (inactive)	
CC(NC(=O)OC(C)(C)C)C(=O)C(N)=O (stereo not drawn)			> 100 µM (inactive)	> 100 µM (inactive)	> 100 µM (inactive)		> 100 µM (inactive)	> 100 µM (inactive)	> 100 µM (inactive)	> 100 µM (inactive)	> 100 µM (inactive)	> 100 µM (inactive)	> 100 µM (inactive)		> 100 µM (inactive)	> 100 µM (inactive)	> 100 µM (inactive)	> 100 µM (inactive)	> 100 µM (inactive)
